# In ChEMBL document CHEMBL1208667, “Permanent positive charge strongly influences DNA/RNA binding and antiproliferative activity of urea-phenanthridinium conjugates” (Eur J Med Chem, 2010):
# The source made the active and inactive calls. The rule behind the calls is not given here.
# Tests used:
# [1] = system: Calf thymus DNA; assay: Binding affinity to calf thymus DNA in citric acid buffer at pH 5 by fluorescence titration assay relative to control; assay type: nucleic-acid assay; details: Bos taurus
# [2] = system: Nucleic Acid; assay: Binding affinity to poly A-poly U RNA in citric acid buffer at pH 5 by fluorescence titration assay; assay type: nucleic-acid assay
# [3] = system: Nucleic Acid; assay: Binding affinity to poly A-poly U RNA in sodium cacodylate buffer at pH 7 by fluorescence titration assay; assay type: nucleic-acid assay
# [4] = system: Nucleic Acid; assay: Binding affinity to poly G-poly C RNA in sodium cacodylate buffer at pH 7 by fluorescence titration assay; assay type: nucleic-acid assay
# [5] = system: Nucleic Acid; assay: Binding affinity to poly A-poly U RNA in citric acid buffer at pH 5 by UV-v titration assay; assay type: nucleic-acid assay
# [6] = system: Nucleic Acid; assay: Binding affinity to poly dA-poly dT RNA in sodium cacodylate buffer at pH 7 by UV-v titration assay; assay type: nucleic-acid assay
# [7] = system: Nucleic Acid; assay: Binding affinity to poly A-poly U RNA in sodium cacodylate buffer at pH 7 by UV-v titration assay; assay type: nucleic-acid assay
# [8] = system: Nucleic Acid; assay: Binding affinity to poly G-poly C RNA in sodium cacodylate buffer at pH 7 by UV-v titration assay; assay type: nucleic-acid assay
# [9] = system: Calf thymus DNA; assay: Binding affinity to calf thymus DNA assessed as change in melting temperature at compound to DNA molar ratio of 0.3 at pH 5 by thermal denaturation assay; assay type: nucleic-acid assay; details: Bos taurus
# [10] = system: Nucleic Acid; assay: Binding affinity to […] assessed as change in melting temperature at compound to DNA molar ratio of 0.3 at pH 5 by thermal denaturation assay; assay type: nucleic-acid assay
# [11] = system: Nucleic Acid; assay: Binding affinity to poly A-poly U RNA assessed as change in melting temperature at compound to DNA molar ratio of 0.2 at pH 5 by thermal denaturation assay; assay type: nucleic-acid assay
# [12] = system: Nucleic Acid; assay: Binding affinity to poly A-poly U RNA assessed as change in melting temperature at compound to DNA molar ratio of 0.3 at pH 5 by thermal denaturation assay; assay type: nucleic-acid assay
# [13] = system: Nucleic Acid; assay: Binding affinity to poly A-poly U RNA assessed as change in melting temperature at compound to DNA molar ratio of 0.2 at pH 7 by thermal denaturation assay; assay type: nucleic-acid assay
# [14] = system: Nucleic Acid; assay: Binding affinity to poly A-poly U RNA at compound to DNA molar ratio of 0.1 to 0.5 at pH 5 by circular dichroism; assay type: nucleic-acid assay
# [15] = system: Calf thymus DNA; assay: Binding affinity to calf thymus DNA at compound to DNA molar ratio of 0.1 to 0.5 at pH 7 by circular dichroism; assay type: nucleic-acid assay; details: Bos taurus
# [16] = system: MIA PaCa-2; assay: Cytotoxicity against human MIAPaCa2 cells after 72 hrs by MTT assay; assay type: functional, cell-based
# [17] = system: HeLa; assay: Cytotoxicity against human HeLa cells at 0.1 to 100 uM after 72 hrs by MTT assay; assay type: functional, cell-based
# [18] = system: Nucleic Acid; assay: Binding affinity to GMP in citric acid buffer at pH 5 by fluorescence titration assay relative to control; assay type: nucleic-acid assay
# [19] = system: Nucleic Acid; assay: Binding affinity to UMP in citric acid buffer at pH 5 by fluorescence titration assay relative to control; assay type: nucleic-acid assay
# [20] = system: Nucleic Acid; assay: Binding affinity to […] assessed as melting temperature at compound to DNA molar ratio of 0.3 at pH 5 by thermal denaturation assay; assay type: nucleic-acid assay
# [21] = system: Nucleic Acid; assay: Binding affinity to poly A-poly U RNA assessed as melting temperature at compound to DNA molar ratio of 0.3 at pH 5 by thermal denaturation assay; assay type: nucleic-acid assay
# [22] = system: Nucleic Acid; assay: Binding affinity to poly A-poly U RNA assessed as biphasic transitions of change in melting temperature at compound to DNA molar ratio of 0.3 at pH 5 by thermal denaturation assay; assay type: nucleic-acid assay
# [23] = system: Nucleic Acid; assay: Binding affinity to poly A-poly U RNA assessed as biphasic transitions of melting temperature at compound to DNA molar ratio of 0.2 at pH 5 by thermal denaturation assay; assay type: nucleic-acid assay
# [24] = system: Nucleic Acid; assay: Binding affinity to poly A-poly U RNA assessed as biphasic transitions of melting temperature at compound to DNA molar ratio of 0.3 at pH 5 by thermal denaturation assay; assay type: nucleic-acid assay
# [25] = system: Calf thymus DNA; assay: Binding affinity to calf thymus DNA in citric acid buffer at pH 5 by UV-v titration assay; assay type: nucleic-acid assay; details: Bos taurus
# [26] = system: Nucleic Acid; assay: Binding affinity to poly G-poly C RNA in citric acid buffer at pH 5 by UV-v titration assay; assay type: nucleic-acid assay
# [27] = system: Nucleic Acid; assay: Binding affinity to poly A-poly U RNA at compound to DNA molar ratio of 0.1 to 0.4 at pH 5 by circular dichroism; assay type: nucleic-acid assay
# [28] = system: Caco-2; assay: Cytotoxicity against human Caco-2 cells at 10 to 100 uM after 72 hrs by MTT assay; assay type: functional, cell-based
# [29] = system: MIA PaCa-2; assay: Cytotoxicity against human MIAPaCa2 cells at 10 to 100 uM after 72 hrs by MTT assay; assay type: functional, cell-based
# [30] = system: HEp-2; assay: Cytotoxicity against human Hep2 cells at 10 to 100 uM after 72 hrs by MTT assay; assay type: functional, cell-based
# [31] = system: HeLa; assay: Cytotoxicity against human HeLa cells at 10 to 100 uM after 72 hrs by MTT assay; assay type: functional, cell-based
# [32] = system: HT-29; assay: Cytotoxicity against human HT-29 cells at 10 to 100 uM after 72 hrs by MTT assay; assay type: functional, cell-based
# [33] = system: HeLa; assay: Drug uptake in human HeLa cells at 1 mM after 10 mins using DAPI staining by fluorescence microscopy analysis; assay type: ADME, cell-based; details: 1000 µM
# [34] = system: MIA PaCa-2; assay: Drug uptake in human MIAPaCa2 cells at 1 mM after 10 mins using DAPI staining by fluorescence microscopy analysis; assay type: ADME, cell-based; details: mia paca-2, 10 min, 1000 µM
# [35] = system: Nucleic Acid; assay: Binding affinity to […] in citric acid buffer at pH 5 by UV-v titration assay; assay type: nucleic-acid assay
SMILES,RFU [1],log Ks [2],log Ks [3],log Ks [4],log Ks [5],log Ks [6],log Ks [8],ΔTm [9] [°C],ΔTm [10] [°C],ΔTm [11] [°C],ΔTm [12] [°C],ΔTm [13] [°C],Activity [14],Activity [16],Activity [17],RFU [18],RFU [19],Tm [20] [°C],Tm [21] [°C],Tm [23] [°C],also measured
Cc1c2cc(NC(=O)NCCCCCCCCCNC(=O)Nc3ccc4c(c3)c(C)[n+](C)c3ccccc43)ccc2c2ccccc2[n+]1C.O=S(=O)([O-])O.O=S(=O)([O-])O,0.3,5.4,5.8,5.4,5.4,5.3,5.8,13.4,7.7,1.8,1.9,2.3,Active,Dose-dependent effect,inactive,-7.2,-15.8,57.7,82.6,31,log Ks [7]: 5.1; Activity [15]: Active; ΔTm [22]: -1.6 °C; Tm [24]: 31.1 °C
Cc1c2cc(NC(=O)NCCCCCCNC(=O)Nc3ccc4c(c3)c(C)[n+](C)c3ccccc43)ccc2c2ccccc2[n+]1C.O=S(=O)([O-])O.O=S(=O)([O-])O,2.7,5.6,5.4,6.2,4.5,5.6,–,15.7,10.4,2.2,–,0,Active,Dose-dependent effect,Active,31.6,-11.5,60.4,–,31.4,log Ks [25]: 5.4; log Ks [26]: 5.1; Activity [27]: Active; Activity [28]: inactive; Activity [29]: inactive; Activity [30]: inactive; Activity [31]: inactive; Activity [32]: inactive; Drug uptake [33]: Active; Drug uptake [34]: Active
Cc1c2cc(NC(=O)NCCNC(=O)Nc3ccc4c(c3)c(C)[n+](C)c3ccccc43)ccc2c2ccccc2[n+]1C.O=S(=O)([O-])O.O=S(=O)([O-])O,2.6,6.6,5.3,5.4,–,5,5.2,15,10.7,1.5,1.9,0,Active,Dose-dependent effect,Active,23.5,-13.5,60.7,83.8,30.7,log Ks [25]: 6; log Ks [35]: 5.2; Activity [27]: Active; ΔTm [22]: -0.4 °C; Tm [24]: 31.1 °C
